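Where inhibition never reached the appropriate level, the endpoint shown equals the highest concentration tested. Otherwise, values were interpolated linearly from a five-concentration, 48-hour dose response in 96-well plates. TGI is the concentration that stops growth completely.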
Experiments:
Assay in all cases: inhibition of tumour cell growth, NCI panel, 48 h
COLO 205 colon = tested on: COLO 205 colon
HCT-15 colon = tested on: HCT-15 colon
OVCAR-8 ovarian = tested on: OVCAR-8 ovarian
SR leukemia = tested on: SR leukemia
SK-MEL-2 melanoma = tested on: SK-MEL-2 melanoma
786-0 renal = tested on: 786-0 renal
SNB-19 CNS = tested on: SNB-19 CNS
A498 renal = tested on: A498 renal
TK-10 renal = tested on: TK-10 renal
UACC-257 melanoma = tested on: UACC-257 melanoma
SN12C renal = tested on: SN12C renal
OVCAR-3 ovarian = tested on: OVCAR-3 ovarian
HOP-62 NSCLC = tested on: HOP-62 NSCLC
MDA-N = tested on: MDA-N
PC-3 prostate = tested on: PC-3 prostate
T-47D breast = tested on: T-47D breast
K-562 leukemia = tested on: K-562 leukemia
M14 melanoma = tested on: M14 melanoma
HCT-116 colon = tested on: HCT-116 colon
HCC-2998 colon = tested on: HCC-2998 colon
MDA-MB-435 = tested on: MDA-MB-435
NCI-H23 lung = tested on: NCI-H23 lung
CAKI-1 renal = tested on: CAKI-1 renal
EKVX NSCLC = tested on: EKVX NSCLC
UACC-62 melanoma = tested on: UACC-62 melanoma
DU-145 prostate = tested on: DU-145 prostate
ACHN renal = tested on: ACHN renal
NCI/ADR-RES ovarian = tested on: NCI/ADR-RES ovarian
SF-295 CNS = tested on: SF-295 CNS
HS 578T breast = tested on: HS 578T breast
U251 CNS = tested on: U251 CNS
HT29 colon = tested on: HT29 colon
RXF 393 renal = tested on: RXF 393 renal
IGROV1 ovarian = tested on: IGROV1 ovarian
KM12 colon = tested on: KM12 colon
BT-549 breast = tested on: BT-549 breast
OVCAR-5 ovarian = tested on: OVCAR-5 ovarian
A549 NSCLC = tested on: A549 NSCLC
SF-539 CNS = tested on: SF-539 CNS
NCI-H460 lung = tested on: NCI-H460 lung
MDA-MB-231 breast = tested on: MDA-MB-231 breast
UO-31 renal = tested on: UO-31 renal
LOX IMVI melanoma = tested on: LOX IMVI melanoma
SNB-75 CNS = tested on: SNB-75 CNS
MCF7 breast = tested on: MCF7 breast
HOP-92 NSCLC = tested on: HOP-92 NSCLC
NCI-H522 lung = tested on: NCI-H522 lung
NCI-H226 lung = tested on: NCI-H226 lung
SK-OV-3 ovarian = tested on: SK-OV-3 ovarian
SK-MEL-5 melanoma = tested on: SK-MEL-5 melanoma
SF-268 CNS = tested on: SF-268 CNS
MOLT-4 leukemia = tested on: MOLT-4 leukemia
RPMI-8226 leukemia = tested on: RPMI-8226 leukemia
OVCAR-4 ovarian = tested on: OVCAR-4 ovarian
CCRF-CEM leukemia = tested on: CCRF-CEM leukemia
SK-MEL-28 melanoma = tested on: SK-MEL-28 melanoma
MALME-3M melanoma = tested on: MALME-3M melanoma
HL-60(TB) leukemia = tested on: HL-60(TB) leukemia
SW-620 colon = tested on: SW-620 colon

Measured: TGI

O=C1c2cc([N+](=O)[O-])ccc2NC2C(O)c3ccccc3N12 (stereo not given)
64.4 µM: 786-0 renal
61.4 µM: BT-549 breast
49.1 µM: MOLT-4 leukemia
41.8 µM: A498 renal
44.1 µM: RPMI-8226 leukemia
38.7 µM: NCI-H522 lung
55.8 µM: OVCAR-4 ovarian
43 µM: EKVX NSCLC
44.8 µM: SNB-75 CNS
80.7 µM: ACHN renal
82.9 µM: NCI-H226 lung
53.6 µM: HOP-92 NSCLC
54 µM: CAKI-1 renal
65 µM: OVCAR-8 ovarian
75.3 µM: IGROV1 ovarian
74.7 µM: SF-539 CNS
72.5 µM: NCI-H23 lung
47.9 µM: UACC-62 melanoma
56.2 µM: SR leukemia
55.3 µM: UACC-257 melanoma
94.5 µM: DU-145 prostate
87.8 µM: K-562 leukemia
34.5 µM: RXF 393 renal
49.6 µM: T-47D breast
63.1 µM: NCI/ADR-RES ovarian
36 µM: SK-OV-3 ovarian
58.1 µM: TK-10 renal
74.3 µM: HS 578T breast
97 µM: NCI-H460 lung
not listed: CCRF-CEM leukemia | SK-MEL-28 melanoma | MALME-3M melanoma | HL-60(TB) leukemia | SW-620 colon
> 100 µM: all other assays above

c1ccc2c3c(ccc2c1)CSCc1ccc2ccccc2c1-3
not listed: NCI-H460 lung | NCI-H226 lung | SK-OV-3 ovarian | HL-60(TB) leukemia | SW-620 colon
> 100 µM: all other assays above

C=C[C@]1(C)CC[C@]2(C)C(CC[C@@]3(C)C2C[C@H](O)[C@H](O)[C@@]3(C)O)C1 (stereo not given in full)
not listed: RXF 393 renal | HOP-92 NSCLC | OVCAR-4 ovarian
> 100 µM: all other assays above

CCOC(=O)/C=C1\Nc2ccccc2C12CCc1c([nH]c3ccccc13)C2C(=O)OCC (stereo not given)
40.5 µM: MDA-MB-435
61.9 µM: RPMI-8226 leukemia
30.2 µM: COLO 205 colon
81 µM: MDA-N
not listed: SNB-75 CNS | HOP-92 NSCLC | NCI-H226 lung
> 100 µM: all other assays above

— PubChem BioAssay (NCI)
